Measurements reported in PubChem BioAssay AID330 (DTP/NCI, 2004).
Where “and” joins values, the source holds several entries; their conditions need not be identical. Equal entries are not always repeated. Toxic doses and inconclusive results are not listed.

Test system: P388 leukemia ip, CD2F1 mice, survival T/C
Assay: NCI In Vivo Anticancer Drug Screen. Data for tumor model P388 Leukemia (intraperitoneal) in CD2F1 (CDF1) mice
Details: endpoint: median survival time, higher = longer survival
Procedure, shortened: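 Mice carrying the transplanted tumor received test compound or vehicle. Survival was recorded in each group, and the value is the treated-group measurement divided by that of the vehicle-treated control group.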

[1] = dose: 50.0 mg/kg/injection, schedule: Q01DX005 (ip), vehicle: saline with Tween-80
[2] = dose: 100.0 mg/kg/injection, schedule: Q01DX005 (ip), vehicle: saline with Tween-80
[3] = dose: 200.0 mg/kg/injection, schedule: Q01DX005 (ip), vehicle: saline with Tween-80
[4] = dose: 50.0 mg/kg/injection, schedule: Q01DX009 (ip), vehicle: saline with Tween-80
[5] = dose: 100.0 mg/kg/injection, schedule: Q01DX009 (ip), vehicle: saline with Tween-80
[6] = dose: 200.0 mg/kg/injection, schedule: Q01DX009 (ip), vehicle: saline with Tween-80
[7] = dose: 12.5 mg/kg/injection, schedule: Q01DX009 (ip), vehicle: saline with Tween-80
[8] = dose: 25.0 mg/kg/injection, schedule: Q01DX009 (ip), vehicle: saline with Tween-80

`COC1=CC(C)C2CC3OC(=O)CC4C(C)=C(OC)C(=O)C(C2(C)C1=O)C34C` (stereo not drawn) was tested, and the T/C (dose: 50.0 mg/kg/injection, schedule: Q01DX005 (ip), vehicle: Klucel (hydroxypropylcellulose) (HPC)) was 95 % of control, the T/C (dose: 100.0 mg/kg/injection, schedule: Q01DX005 (ip), vehicle: Klucel (hydroxypropylcellulose) (HPC)) was 101 % of control and the T/C (dose: 200.0 mg/kg/injection, schedule: Q01DX005 (ip), vehicle: Klucel (hydroxypropylcellulose) (HPC)) was 101 % of control.
For `CCOC(=O)C(CC)/C(C)=N\NC(N)=S` (stereo not drawn), the T/C (dose: 60.0 mg/kg/injection, schedule: Q01DX005 (ip), vehicle: Klucel (hydroxypropylcellulose) (HPC)) was 100 % of control, the T/C (dose: 120.0 mg/kg/injection, schedule: Q01DX005 (ip), vehicle: Klucel (hydroxypropylcellulose) (HPC)) was 101 % of control and the T/C (dose: 240.0 mg/kg/injection, schedule: Q01DX005 (ip), vehicle: Klucel (hydroxypropylcellulose) (HPC)) was 99 % of control.
For `CN(C)CCC1CC(O)CCC1(C)O` (stereo not drawn), the T/C (dose: 50.0 mg/kg/injection, schedule: Q01DX005 (ip), vehicle: saline) was 98 % of control, the T/C (dose: 100.0 mg/kg/injection, schedule: Q01DX005 (ip), vehicle: saline) was 100 % of control and the T/C (dose: 200.0 mg/kg/injection, schedule: Q01DX005 (ip), vehicle: saline) was 102 % of control.
For `CC1(C)CCC[C@](C)(O)C2CCC=CC21` (stereo partly drawn), the T/C (dose: 100.0 mg/kg/injection, schedule: Q04DX002 (ip), vehicle: Klucel (hydroxypropylcellulose) (HPC)) was 106 % of control, the T/C (dose: 200.0 mg/kg/injection, schedule: Q04DX002 (ip), vehicle: Klucel (hydroxypropylcellulose) (HPC)) was 104 % of control and the T/C (dose: 400.0 mg/kg/injection, schedule: Q04DX002 (ip), vehicle: Klucel (hydroxypropylcellulose) (HPC)) was 114 % of control.
With `O=C1OC(c2ccccc2)=N/C1=C\c1cccc([N+](=O)[O-])c1` the T/C (dose: 50.0 mg/kg/injection, schedule: Q04DX002 (ip), vehicle: saline with Tween-80) was 96 % of control, the T/C (dose: 100.0 mg/kg/injection, schedule: Q04DX002 (ip), vehicle: saline with Tween-80) was 97 % of control and the T/C (dose: 200.0 mg/kg/injection, schedule: Q04DX002 (ip), vehicle: saline with Tween-80) was 99 % of control. The T/C (dose: 400.0 mg/kg/injection, schedule: Q04DX002 (ip), vehicle: saline with Tween-80) was 99 % of control.
`[N-]=[N+]=NC12CC3CC4C5CC(CC41)CC2[C@H]5C3` was tested, and the T/C [1] was 97 % of control, the T/C [2] was 99 % of control and the T/C [3] was 100 % of control.
`O=C1C2CCC(CC2)C1C(c1ccccc1)c1ccccc1` (stereo not drawn) was tested, and the T/C [4] was 93 % of control, the T/C [5] was 91 % of control and the T/C [6] was 90 % of control.
For `OCC1OC(n2cnc3c2NC=NC[C@H]3O)C(O)C1O` (stereo partly drawn), the T/C (dose: 0.1 mg/kg/injection, schedule: Q01DX009 (ip), vehicle: saline) was 106 % of control, the T/C (dose: 0.2 mg/kg/injection, schedule: Q01DX005 (ip), vehicle: saline) was 104 % of control and the T/C (dose: 0.2 mg/kg/injection, schedule: Q01DX009 (ip), vehicle: saline) was 111 % of control. For the same molecule, the T/C (dose: 0.4 mg/kg/injection, schedule: Q01DX005 (ip), vehicle: saline) was 107 % of control, the T/C (dose: 0.4 mg/kg/injection, schedule: Q01DX009 (ip), vehicle: saline) was 103 % of control and the T/C (dose: 0.78 mg/kg/injection, schedule: Q01DX005 (ip), vehicle: saline) was 99 % of control. For the same molecule, the T/C (dose: 0.8 mg/kg/injection, schedule: Q01DX005 (ip), vehicle: saline) was 100 % of control and the T/C (dose: 1.56 mg/kg/injection, schedule: Q01DX005 (ip), vehicle: saline) was 97 % of control.
With `CCOC(=O)c1ccc(NC(=O)Nc2nc3cc(C)c(C)cc3s2)cc1` the T/C [4] was 99 % of control, the T/C [5] was 95 % of control and the T/C [6] was 93 % of control.
With `COC(=O)C(NC(=O)C(NC(=O)c1c2nc3c(C(=O)NC(C(=O)NC(C(=O)OC)C(C)C)C(C)O)ccc(C)c3oc-2c(C)c(=O)c1N)C(C)O)C(C)C` (stereo not drawn) the T/C (dose: 0.05 mg/kg/injection, schedule: Q01DX009 (ip), vehicle: water) was 117 % of control, the T/C (dose: 0.1 mg/kg/injection, schedule: Q01DX009 (ip), vehicle: water) was 101 % of control and the T/C (dose: 0.2 mg/kg/injection, schedule: Q01DX009 (ip), vehicle: water) was 99 % of control. The T/C (dose: 0.4 mg/kg/injection, schedule: Q01DX009 (ip), vehicle: water) was 100 % of control, the T/C (dose: 0.8 mg/kg/injection, schedule: Q01DX009 (ip), vehicle: water) was 99 % of control and the T/C (dose: 1.6 mg/kg/injection, schedule: Q01DX009 (ip), vehicle: water) was 102 % of control and 90 % of control. The T/C (dose: 3.2 mg/kg/injection, schedule: Q01DX009 (ip), vehicle: water) was 92 % of control, the T/C (dose: 6.4 mg/kg/injection, schedule: Q01DX009 (ip), vehicle: water) was 99 % of control and the T/C (dose: 12.8 mg/kg/injection, schedule: Q01DX009 (ip), vehicle: water) was 101 % of control.
`CCOC(=O)N(C)O` was tested, and the T/C [1] was 105 % of control, the T/C [2] was 107 % of control and the T/C [3] was 100 % of control. For the same molecule, the T/C (dose: 400.0 mg/kg/injection, schedule: Q01DX005 (ip), vehicle: saline with Tween-80) was 100 % of control.
In the case of `CCOC(=O)C(C)(C)Br`, the T/C (dose: 100.0 mg/kg/injection, schedule: Q01DX009 (ip), vehicle: saline sonified) is reported as 105 % of control, the T/C (dose: 200.0 mg/kg/injection, schedule: Q01DX009 (ip), vehicle: saline sonified) is reported as 105 % of control and the T/C (dose: 400.0 mg/kg/injection, schedule: Q01DX009 (ip), vehicle: saline sonified) is reported as 115 % of control.
In the case of `Cc1ccccc1NP1(=O)OCCCN1Cc1ccc(Cl)c(Cl)c1` (stereo not drawn), the T/C [1] is reported as 100 % of control, the T/C [2] is reported as 98 % of control and the T/C [3] is reported as 93 % of control.
For `COc1cccc2c1C(=O)c1c(O)c3c(c(O)c1C2=O)CC(O)(c1csc(N)n1)CC3O` (stereo not drawn), the T/C (dose: 1.56 mg/kg/injection, schedule: Q01DX009 (ip), vehicle: other) was 100 % of control, the T/C (dose: 3.13 mg/kg/injection, schedule: Q01DX009 (ip), vehicle: other) was 107 % of control and the T/C (dose: 6.25 mg/kg/injection, schedule: Q01DX009 (ip), vehicle: other) was 101 % of control. For the same molecule, the T/C (dose: 12.5 mg/kg/injection, schedule: Q01DX009 (ip), vehicle: other) was 108 % of control, the T/C (dose: 25.0 mg/kg/injection, schedule: Q01DX009 (ip), vehicle: other) was 107 % of control and the T/C (dose: 50.0 mg/kg/injection, schedule: Q01DX009 (ip), vehicle: other) was 108 % of control.
`CN(C)C1CCc2ccccc2C1OC(=O)/C=C/c1ccccc1` (stereo not drawn) was tested, and the T/C [7] was 101 % of control, the T/C [8] was 106 % of control and the T/C [4] was 111 % of control. For the same molecule, the T/C [5] was 111 % of control.
For `CCOC(=O)N1C(=O)C2C3C=CC(C2C1=O)C1C2C(=O)N(C(=O)OCC)C(=O)C2C31` (stereo not drawn), the T/C (dose: 25.0 mg/kg/injection, schedule: Q01DX009 (ip), vehicle: Klucel (hydroxypropylcellulose) (HPC)) was 116 % of control and 124 % of control, the T/C (dose: 50.0 mg/kg/injection, schedule: Q01DX009 (ip), vehicle: Klucel (hydroxypropylcellulose) (HPC)) was 121 % of control and the T/C (dose: 100.0 mg/kg/injection, schedule: Q01DX009 (ip), vehicle: Klucel (hydroxypropylcellulose) (HPC)) was 152 % of control.
For `O=S1(=O)CC(N2CCCCC2)C2=C(O1)c1ccccc1SC2` (stereo not drawn), the T/C [4] was 88 % of control and the T/C [5] was 92 % of control.
With `NC(=S)Oc1ccccc1` the T/C (dose: 6.25 mg/kg/injection, schedule: Q01DX009 (ip), vehicle: saline with Tween-80) was 103 % of control, the T/C [7] was 100 % of control and the T/C [8] was 106 % of control. The T/C [5] was 93 % of control and the T/C [6] was 93 % of control.
With `O=C(Nc1cccc([N+](=O)[O-])c1)OCC#CCCl` the T/C (dose: 50.0 mg/kg/injection, schedule: Q01DX005 (ip), vehicle: saline + Tween-80 + alcohol) was 102 % of control, the T/C (dose: 100.0 mg/kg/injection, schedule: Q01DX005 (ip), vehicle: saline + Tween-80 + alcohol) was 101 % of control and the T/C (dose: 200.0 mg/kg/injection, schedule: Q01DX005 (ip), vehicle: saline + Tween-80 + alcohol) was 100 % of control.
With `CCCCCCCCCCCCCCCCN1CCC2SC3CN(CCCCCCCCCCCCCCCC)CCC3SC2C1` (stereo not drawn) the T/C [4] was 99 % of control, the T/C [5] was 96 % of control and the T/C [6] was 97 % of control.
For `Cc1cc([N+](=O)[O-])cc(C)c1OC(=O)Nc1c(Cl)cccc1Cl`, the T/C (dose: 30.0 mg/kg/injection, schedule: Q01DX005 (ip), vehicle: saline with Tween-80) was 101 % of control, the T/C (dose: 60.0 mg/kg/injection, schedule: Q01DX005 (ip), vehicle: saline with Tween-80) was 100 % of control and 95 % of control and the T/C (dose: 120.0 mg/kg/injection, schedule: Q01DX005 (ip), vehicle: saline with Tween-80) was 99 % of control and 100 % of control. The T/C (dose: 240.0 mg/kg/injection, schedule: Q01DX005 (ip), vehicle: saline with Tween-80) was 94 % of control.
In the case of `Brc1ccc(-n2c(-c3ccccc3)cs/c2=N\Nc2nnc(-c3ccccc3)c(-c3ccccc3)n2)cc1`, the T/C [1] is reported as 101 % of control, the T/C [2] is reported as 87 % of control and the T/C [3] is reported as 92 % of control.
`O=C(c1ccc(Cl)cc1)C(O)NC(=S)c1ccc(Cl)cc1` (stereo not drawn) was tested, and the T/C [4] was 96 % of control, the T/C [5] was 111 % of control and the T/C [6] was 113 % of control.
